Patent publication US11230533B2, “Crystalline salts and polymorphs of a P2X3 antagonist” (Afferent Pharmaceuticals, Inc., priority 2016, dated 2022)
Values after ≈ are worked out from the molar mass of the structure shown. Like-named read-outs stand apart in the source and are kept apart here.

Assay: Approximate solubility by solvent addition
Assay type: physicochemical
Protocol: Solubilities are calculated based on the total solvent used to give a solution; actual solubilities may be greater because of the volume of the solvent portions used or a slow rate of dissolution. Values are rounded to the nearest whole number.
Solubilities are calculated based on the total solvent used to give a solution; actual solubilities may be greater because of the volume of the solvent portions used or a slow rate of dissolution. Values are rounded to the nearest whole number. […] If dissolution occurred as determined by the visual assessment after the addition of the first aliquot, the value is reported as “>”.

SMILES: COc1cc(C(C)C)c(Oc2cnc(N)nc2N)cc1S(N)(=O)=O [Compound A Free Base Form A, 5-(2,4-diamino-pyrimidin-5-yloxy)-4-isopropyl-2-methoxy-benzenesulfonamide]
- solubility (aqueous with cosolvent or surfactant or cyclodextrin, thermodynamic from solid, solvent acetone/water 50:50 (v/v), read-out: Solubility): < 1000 µg/mL
- solubility (organic solvent or mixture, thermodynamic from solid, solvent ACN/water 90:10 (v/v), read-out: Solubility): 1000 µg/mL (≈ 2830 µM)
- solubility (organic solvent or mixture, thermodynamic from solid, solvent ACN, read-out: Solubility): < 2000 µg/mL
- solubility (organic solvent or mixture, thermodynamic from solid, solvent DMSO, read-out: Solubility): 20000 µg/mL (≈ 56600 µM)
- solubility (organic solvent or mixture, thermodynamic from solid, solvent EtOAc, read-out: Solubility): < 1000 µg/mL
- solubility (organic solvent or mixture, thermodynamic from solid, solvent EtOH, read-out: Solubility): < 1000 µg/mL
- solubility (organic solvent or mixture, thermodynamic from solid, solvent MeOH, read-out: Solubility): 1000 µg/mL (≈ 2830 µM)
- solubility (organic solvent or mixture, thermodynamic from solid, solvent TFE, read-out: Solubility): 2000 µg/mL (≈ 5660 µM)
- solubility (organic solvent or mixture, thermodynamic from solid, solvent acetone, read-out: Solubility): < 1000 µg/mL
- solubility (solvent water, ambient temperature): <1000 µg/mL
- solubility (thermodynamic from solid, solvent water, ambient temperature, read-out: Solubility): < 1000 µg/mL
